Values quoted from earlier work in US20260042735A1, “BENZYLTRYPTAMINE COMPOUNDS” (priority 2021, published 2026).
pEC50, pKi: −log10 of the molar value.

Tests used:
human 5-HT2A receptor = human 5-HT2A receptor (Homo sapiens (Human), UniProt P28223); conditions: cited from earlier work
5HT2B receptor [1] = target: T1, 5HT2B receptor (Homo sapiens, UniProt P41595); conditions: cited from earlier work
5HT2C receptor = 5HT2C receptor (Homo sapiens, UniProt P28335); conditions: cited from earlier work
5HT2B receptor [2] = target: T1, 5HT2B receptor; conditions: cited from earlier work; remark: listed apart in the source
mouse OCD model = conditions: cited from earlier work
mouse head twitch = conditions: much lower potency relative to psilocin; cited from earlier work
SERT = SERT (Homo sapiens (Human), UniProt P31645); conditions: cited from earlier work
5-HT1B = 5-HT1B (Homo sapiens (Human), UniProt P28222); conditions: cited from earlier work
5-HT1D = 5-HT1D (Homo sapiens (Human), UniProt P28221); conditions: cited from earlier work
5-HT3 = 5-HT3 (Homo sapiens (Human), UniProt P46098); conditions: read-out: Ki 5-HT3; cited from earlier work
5-HT5 = 5-HT5 (Homo sapiens (Human), UniProt P47898); conditions: cited from earlier work
5-HT6 = 5-HT6 (Homo sapiens (Human), UniProt P50406); conditions: cited from earlier work
5-HT7 = 5-HT7 (Homo sapiens (Human), UniProt P34969); conditions: cited from earlier work
dopamine receptors = conditions: cited from earlier work
patients = conditions: cited from earlier work
cancer patients = conditions: high-dose, 6-month follow-up; cited from earlier work
[3] = system: patients with alcohol dependence; conditions: 10 patients with alcohol dependence; cited from earlier work
[4] = system: participants with tobacco addiction; conditions: cited from earlier work

T1 sequence (P41595 whole entry, looked up): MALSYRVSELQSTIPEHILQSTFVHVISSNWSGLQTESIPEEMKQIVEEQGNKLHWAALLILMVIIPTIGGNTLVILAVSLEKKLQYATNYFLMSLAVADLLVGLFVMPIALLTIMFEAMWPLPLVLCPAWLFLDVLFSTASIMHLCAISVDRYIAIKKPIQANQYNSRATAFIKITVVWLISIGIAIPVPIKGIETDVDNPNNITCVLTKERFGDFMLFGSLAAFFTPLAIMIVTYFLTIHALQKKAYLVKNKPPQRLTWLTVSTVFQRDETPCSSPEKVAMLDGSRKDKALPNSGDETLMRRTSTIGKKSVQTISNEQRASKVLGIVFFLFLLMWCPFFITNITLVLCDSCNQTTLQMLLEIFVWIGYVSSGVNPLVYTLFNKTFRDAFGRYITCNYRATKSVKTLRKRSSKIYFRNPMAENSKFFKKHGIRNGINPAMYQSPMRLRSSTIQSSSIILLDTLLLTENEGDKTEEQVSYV
Chain of 5HT2C receptor (P28335 33-458 limits assumed): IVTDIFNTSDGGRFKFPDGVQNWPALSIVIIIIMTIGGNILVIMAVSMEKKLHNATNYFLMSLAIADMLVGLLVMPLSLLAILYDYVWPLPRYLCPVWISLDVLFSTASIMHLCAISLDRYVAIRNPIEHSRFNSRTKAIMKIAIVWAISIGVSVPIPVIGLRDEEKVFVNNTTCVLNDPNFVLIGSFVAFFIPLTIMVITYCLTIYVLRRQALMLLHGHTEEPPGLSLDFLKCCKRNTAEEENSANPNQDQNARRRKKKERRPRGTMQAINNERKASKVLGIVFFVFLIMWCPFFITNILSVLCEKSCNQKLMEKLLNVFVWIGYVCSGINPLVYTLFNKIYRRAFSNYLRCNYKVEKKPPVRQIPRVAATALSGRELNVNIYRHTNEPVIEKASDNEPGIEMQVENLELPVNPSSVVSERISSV
Chain of 5-HT7 (P34969 whole entry, looked up, species assumed): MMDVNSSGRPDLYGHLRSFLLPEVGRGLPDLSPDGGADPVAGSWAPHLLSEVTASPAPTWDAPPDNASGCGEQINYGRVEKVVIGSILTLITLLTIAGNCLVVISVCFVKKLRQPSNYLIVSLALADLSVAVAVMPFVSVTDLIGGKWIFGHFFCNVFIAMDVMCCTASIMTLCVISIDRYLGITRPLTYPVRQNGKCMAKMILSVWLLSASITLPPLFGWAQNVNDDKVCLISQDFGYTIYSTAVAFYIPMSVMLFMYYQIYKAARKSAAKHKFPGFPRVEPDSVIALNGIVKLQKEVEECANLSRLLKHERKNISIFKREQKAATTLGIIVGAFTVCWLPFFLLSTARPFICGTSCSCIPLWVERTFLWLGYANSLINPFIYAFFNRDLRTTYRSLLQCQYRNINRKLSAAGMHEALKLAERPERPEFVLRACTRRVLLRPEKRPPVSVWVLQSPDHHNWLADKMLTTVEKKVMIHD
Chain of 5-HT1D (P28221 whole entry, looked up, species assumed): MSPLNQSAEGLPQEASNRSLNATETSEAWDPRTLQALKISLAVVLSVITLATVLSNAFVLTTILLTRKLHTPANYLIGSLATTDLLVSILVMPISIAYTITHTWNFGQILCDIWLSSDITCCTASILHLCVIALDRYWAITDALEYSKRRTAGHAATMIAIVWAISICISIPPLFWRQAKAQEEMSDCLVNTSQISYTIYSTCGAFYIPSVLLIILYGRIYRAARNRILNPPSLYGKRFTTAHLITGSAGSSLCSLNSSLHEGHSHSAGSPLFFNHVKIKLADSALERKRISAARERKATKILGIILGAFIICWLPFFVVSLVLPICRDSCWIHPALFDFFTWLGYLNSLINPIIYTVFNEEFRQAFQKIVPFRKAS
Chain of 5-HT5 (P47898 whole entry, looked up, species assumed): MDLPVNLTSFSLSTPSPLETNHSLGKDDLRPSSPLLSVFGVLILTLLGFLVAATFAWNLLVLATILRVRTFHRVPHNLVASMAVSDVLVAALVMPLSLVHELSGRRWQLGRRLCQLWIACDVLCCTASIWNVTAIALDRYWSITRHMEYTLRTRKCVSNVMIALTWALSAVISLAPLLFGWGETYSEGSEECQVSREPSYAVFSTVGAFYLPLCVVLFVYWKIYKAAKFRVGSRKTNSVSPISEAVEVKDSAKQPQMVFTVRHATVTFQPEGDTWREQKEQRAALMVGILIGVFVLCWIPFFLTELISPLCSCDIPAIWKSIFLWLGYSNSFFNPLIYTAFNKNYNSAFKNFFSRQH
Chain of 5-HT3 (P46098 whole entry, looked up, species assumed): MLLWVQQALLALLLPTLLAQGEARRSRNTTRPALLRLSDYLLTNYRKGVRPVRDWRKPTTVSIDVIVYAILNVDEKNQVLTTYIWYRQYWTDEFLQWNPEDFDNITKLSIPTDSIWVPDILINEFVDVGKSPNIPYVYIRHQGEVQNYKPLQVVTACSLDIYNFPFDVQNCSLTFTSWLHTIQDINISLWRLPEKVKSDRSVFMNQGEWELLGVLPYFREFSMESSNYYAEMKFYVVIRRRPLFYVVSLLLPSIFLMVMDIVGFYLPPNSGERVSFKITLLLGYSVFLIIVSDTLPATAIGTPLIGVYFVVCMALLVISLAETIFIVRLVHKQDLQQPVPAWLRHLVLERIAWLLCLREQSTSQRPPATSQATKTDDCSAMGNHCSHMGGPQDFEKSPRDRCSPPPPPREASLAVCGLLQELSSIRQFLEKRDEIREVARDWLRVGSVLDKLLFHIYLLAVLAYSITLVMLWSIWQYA
Chain of 5-HT1B (P28222 whole entry, looked up, species assumed): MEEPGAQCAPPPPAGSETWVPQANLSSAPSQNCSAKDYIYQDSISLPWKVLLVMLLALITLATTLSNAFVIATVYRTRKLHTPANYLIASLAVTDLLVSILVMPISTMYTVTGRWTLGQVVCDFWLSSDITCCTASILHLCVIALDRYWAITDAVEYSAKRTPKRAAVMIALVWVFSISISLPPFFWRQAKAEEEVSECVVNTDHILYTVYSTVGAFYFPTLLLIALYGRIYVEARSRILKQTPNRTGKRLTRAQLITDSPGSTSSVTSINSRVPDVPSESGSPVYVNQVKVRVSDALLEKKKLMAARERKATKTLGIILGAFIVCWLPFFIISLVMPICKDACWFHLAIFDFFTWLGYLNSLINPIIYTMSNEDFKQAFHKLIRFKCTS
Chain of 5-HT6 (P50406 whole entry, looked up, species assumed): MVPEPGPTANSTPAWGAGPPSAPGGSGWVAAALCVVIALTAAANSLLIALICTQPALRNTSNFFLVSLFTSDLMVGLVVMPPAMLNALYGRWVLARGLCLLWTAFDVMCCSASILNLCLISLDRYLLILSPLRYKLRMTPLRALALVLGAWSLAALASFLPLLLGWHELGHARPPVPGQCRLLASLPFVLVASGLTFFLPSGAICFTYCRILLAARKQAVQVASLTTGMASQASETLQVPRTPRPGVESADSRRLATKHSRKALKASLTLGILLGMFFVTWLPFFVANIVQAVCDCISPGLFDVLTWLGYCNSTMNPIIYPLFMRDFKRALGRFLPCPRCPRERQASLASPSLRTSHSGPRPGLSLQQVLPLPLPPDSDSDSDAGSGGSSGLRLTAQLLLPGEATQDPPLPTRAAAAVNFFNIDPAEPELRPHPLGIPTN

CN(C)CCc1cn(C)c2cccc(O)c12 [compound 1]
Functional efficacy response vs serotonin, 5-HT2A (human 5-HT2A receptor): ca. 30%
pEC50 (human 5-HT2A receptor; phosphoinositol hydrolysis, read-out: Agonist potency at human 5-HT2A receptor): 6.20
Agonist activity at 5-HT2B receptors (5HT2B receptor [1]): inactive
pEC50 (5HT2C receptor; phosphoinositol hydrolysis, read-out: Agonist potency at human 5-HT2C receptor): 7.92
Functional efficacy response vs serotonin, 5-HT2C (5HT2C receptor; serotonin set at 100%): ca. 45%
Antagonist potency at 5-HT2B receptors (5HT2B receptor [2]): 38 nM
Efficacy in mouse OCD model (mouse OCD model): efficacy in a mouse OCD model demonstrated
Efficacy in mouse head twitch assay (mouse head twitch): efficacious

CN(C)CCc1c[nH]c2cccc(O)c12 [Psilocin, psilocin]
pKi (SERT): 5.42
pKi (5-HT1B): 6.66
pKi (5-HT1D): 7.44
pKi (5-HT3): < 5.00
pKi (5-HT5): 7.08
pKi (5-HT6): 7.24
pKi (5-HT7): 8.46
Effect on dopamine receptors (dopamine receptors): no significant effect

C[C@H]1CNCCc2ccc(Cl)cc21 [Locaserin]
Risk of cardiac valvulopathy (patients): no increased risk of cardiac valvulopathy

CN(C)CCc1c[nH]c2cccc(OP(=O)(O)O)c12 [psilocybin]
Participants continuing to show clinically significant decreases in depressed mood and anxiety (cancer patients): about 80%
Alcohol use post administration [3]: significant decrease in alcohol use
Participants abstinent ([4]; 2.5 years after the target quit date): 75%
Participants with biologically verified 7-day point-prevalence abstinence ([4]; 6-month follow up): eighty
Participants biologically verified as abstinent ([4]; 12-month follow-up): 67%
